From patent US11364222B2, “Combination therapy for treatment of cancer” (G1 Therapeutics, Inc., priority 2017, dated 2022)
“Also recorded” adds a separate entry of the source.

Legend:
MCF-7 cells [1] = experiment: MCF7 7 day proliferation assay in the presence of 0.1 nM E2 (Hoechst DNA content); assay type: cell-based; conditions: for IC50: Homo sapiens, MCF7, 168 h, read-out: IC50, MCF7 proliferation
MCF-7 cells [2] = experiment: MCF7 7 day proliferation assay in the presence of 20 nM insulin (Hoechst DNA content); assay type: cell-based; conditions: Homo sapiens, MCF7, 168 h, read-out: IC50, MCF7 insulin driven proliferation
MCF7:WS8 = experiment: Cell viability of MCF7:WS8, fluorescent DNA quantitation; assay type: cell-based; conditions: MCF7:WS8 cells, day 4, total DNA; for IC50: 96 h, read-out: MCF-7WS8 IC50
MCF7:5C = experiment: Cell viability of MCF7:5C (tamoxifen resistant), fluorescent DNA quantitation; assay type: cell-based; conditions: 144 h, read-out: MCF-7:5C IC50
[3] = Glucuronidation in gut intestinal mucosa and liver S9 fraction; assay type: in vitro ADME; conditions: gut intestinal mucosa and human S9 fraction from the liver
[4] = tested on: estrogen-receptor positive cell; experiment: Estrogen-receptor positive cell proliferation (summary statement); assay type: cell-based
hERG = hERG (Homo sapiens, UniProt Q12809); experiment: hERG inhibition (summary statement)
[5] = Oral bioavailability (summary statement); conditions: in vivo
LTED xenograft tumors = experiment: LTED xenograft tumors, model of aromatase inhibitor resistance; assay type: in vivo, OVX nu/nu (ovariectomy nude) mice; conditions: Compound 20 5, 10, 30 or 100 mg/kg, 30 days of treatment, FIG. 13
estrogen receptor (ER) = biological target: T1, estrogen receptor (ER) (Homo sapiens, UniProt P03372); conditions: MCF7 cells, presence or absence of proteasome pathway inhibitor MG132, FIG. 4
T1 sequence (P03372 1-595): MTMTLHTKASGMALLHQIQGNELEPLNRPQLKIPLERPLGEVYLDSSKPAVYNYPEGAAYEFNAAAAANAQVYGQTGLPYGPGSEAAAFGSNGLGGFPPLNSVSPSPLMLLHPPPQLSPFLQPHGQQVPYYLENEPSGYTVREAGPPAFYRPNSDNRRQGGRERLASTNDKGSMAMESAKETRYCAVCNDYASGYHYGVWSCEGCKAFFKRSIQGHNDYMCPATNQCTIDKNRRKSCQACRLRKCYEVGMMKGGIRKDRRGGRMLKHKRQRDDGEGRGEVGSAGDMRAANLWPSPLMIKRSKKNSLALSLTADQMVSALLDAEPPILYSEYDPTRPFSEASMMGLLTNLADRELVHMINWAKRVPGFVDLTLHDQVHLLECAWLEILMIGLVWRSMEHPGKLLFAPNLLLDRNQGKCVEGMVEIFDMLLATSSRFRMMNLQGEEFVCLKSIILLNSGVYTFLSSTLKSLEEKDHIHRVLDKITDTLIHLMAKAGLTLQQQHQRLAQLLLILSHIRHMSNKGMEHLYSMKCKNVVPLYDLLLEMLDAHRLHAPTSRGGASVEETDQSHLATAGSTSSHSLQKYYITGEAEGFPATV

[6] = tested on: tamoxifen-resistant (TamR) xenograft tumors; experiment: Tamoxifen-resistant (TamR) xenograft tumors, tumor volume; assay type: in vivo; conditions: 30 mg/kg qd and 100 mg/kg qd, approximately 70 days, FIG. 12B
[7] = tested on: estrogen-receptor negative cell; experiment: Estrogen-receptor negative cell proliferation (summary statement); assay type: cell-based

hERG, sequence (Q12809 whole entry): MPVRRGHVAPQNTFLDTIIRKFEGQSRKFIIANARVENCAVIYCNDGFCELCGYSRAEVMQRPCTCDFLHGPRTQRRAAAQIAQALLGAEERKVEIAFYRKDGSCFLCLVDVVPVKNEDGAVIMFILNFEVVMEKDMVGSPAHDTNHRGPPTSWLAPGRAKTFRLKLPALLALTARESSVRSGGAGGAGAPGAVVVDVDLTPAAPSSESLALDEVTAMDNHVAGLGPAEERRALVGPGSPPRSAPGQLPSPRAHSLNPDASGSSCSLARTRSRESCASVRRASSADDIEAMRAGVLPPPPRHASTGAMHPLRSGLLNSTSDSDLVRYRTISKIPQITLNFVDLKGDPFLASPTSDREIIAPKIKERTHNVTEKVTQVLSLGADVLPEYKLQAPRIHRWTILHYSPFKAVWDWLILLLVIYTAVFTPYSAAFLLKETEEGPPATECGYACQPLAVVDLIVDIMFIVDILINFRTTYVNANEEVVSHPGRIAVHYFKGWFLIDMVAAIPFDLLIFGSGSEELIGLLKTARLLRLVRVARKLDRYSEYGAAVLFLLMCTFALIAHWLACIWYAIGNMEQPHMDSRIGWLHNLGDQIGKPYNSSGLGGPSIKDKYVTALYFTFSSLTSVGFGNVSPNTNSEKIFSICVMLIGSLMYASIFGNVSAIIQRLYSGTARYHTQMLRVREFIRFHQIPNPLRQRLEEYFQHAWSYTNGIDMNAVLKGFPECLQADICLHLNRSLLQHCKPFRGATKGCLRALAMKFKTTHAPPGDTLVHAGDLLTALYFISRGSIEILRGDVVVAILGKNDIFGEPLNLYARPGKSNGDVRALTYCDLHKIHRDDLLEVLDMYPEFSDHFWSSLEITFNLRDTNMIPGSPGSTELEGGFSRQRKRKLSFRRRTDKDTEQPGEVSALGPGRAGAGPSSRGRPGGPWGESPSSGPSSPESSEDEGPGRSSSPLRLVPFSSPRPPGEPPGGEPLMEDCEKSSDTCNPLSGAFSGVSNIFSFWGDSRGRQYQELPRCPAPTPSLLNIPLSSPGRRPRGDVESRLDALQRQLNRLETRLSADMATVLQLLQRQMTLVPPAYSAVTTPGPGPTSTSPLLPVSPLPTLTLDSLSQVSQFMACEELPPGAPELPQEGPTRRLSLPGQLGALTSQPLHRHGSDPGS

Q: Which IC50 (MCF-7 cells [1]) does the source give for `CC/C(=C(\c1ccc(O)cc1)c1ccc(OCCN(C)C)cc1)c1ccccc1` [4-hydroxytamoxifen] here?
A: 3.46 nM

Q: Which IC50 (MCF-7 cells [1]) does the source give for `C[C@@H]1Cc2c([nH]c3ccccc23)[C@@H](c2c(F)cc(/C=C/C(=O)O)cc2F)N1CC(C)(C)F` [AZD9496] here?
A: 0.04 nM

Q: What about the IC50 (MCF-7 cells [2]) of the same compound?
A: 0.002 nM

Q: Which “MCF-7WS8 IC50 (nM)” value (MCF7:WS8) does the source give for `O=C(O)/C=C/c1ccc(Oc2c(C(=O)c3ccc(O)cc3)sc3cc(O)ccc23)cc1` [Compound 2, (E)-3-(4-((6-Hydroxy-2-(4-hydroxybenzoyl)benzo[b]thiophen-3-yl)oxy)phenyl) acrylic acid] here?
A: No Inhiibition

Q: Which results are given for `Cc1cc(F)ccc1C(=O)c1sc2cc(O)ccc2c1Oc1c(F)cc(/C=C/C(=O)O)cc1F` [Compound 14, (E)-3-(3,5-Difluoro-4-((2-(4-fluoro-2-methylbenzoyl)-6-hydroxybenzo[b]thiophen-3-yl)oxy)phenyl) acrylic acid]?
A: IC50 (MCF7:WS8): > 10 nM; IC50 (MCF7:5C): > 10 nM

Q: For `Cc1cc(F)ccc1C(=O)c1sc2cc(O)ccc2c1Oc1ccc(/C=C/C(=O)O)cc1F` [Compound 15, (E)-3-(3-Fluoro-4-((2-(4-fluoro-2-methylbenzoyl)-6-hydroxybenzo[b]thiophen-3-yl)oxy)phenyl) acrylic acid], which IC50 (MCF7:WS8) is on record?
A: < 10 nM

Q: What about the IC50 (MCF7:5C) of the same compound?
A: < 10 nM

Q: With `Cc1cc(F)ccc1C(F)(F)c1sc2cc(O)ccc2c1Oc1ccc(/C=C/C(=O)O)cc1` [Compound 16, (E)-3-(4-((2-(Difluoro(4-fluoro-2-methylphenyl)methyl)-6-hydroxybenzo[b]thiophen-3-yl)oxy)phenyl)acrylic acid] as the compound, how does the IC50 (MCF7:WS8) read?
A: < 100 nM

Q: And the IC50 (MCF7:5C)?
A: < 100 nM

Q: For `Cc1cc(F)ccc1C1(c2sc3cc(O)ccc3c2Oc2ccc(/C=C/C(=O)O)cc2)CC1` [Compound 17, (E)-3-(4-((2-(1-(4-Fluoro-2-methylphenyl)cyclopropyl)-6-hydroxybenzo[b]thiophen-3-yl)oxy)phenyl) acrylic acid], which IC50 (MCF7:WS8) is on record?
A: < 100 nM

Q: And the IC50 (MCF7:5C)?
A: < 100 nM

Q: With `Cc1cc(F)ccc1C(=O)c1sc2cc(O)ccc2c1Oc1ccc(NC(=O)C(=O)O)cc1` [Compound 18, 2-((4-((2-(4-Fluoro-2-methylbenzoyl)-6-hydroxybenzo[b]thiophen-3-yl)oxy)phenyl)amino)-2-oxoacetic acid] as the compound, how does the “MCF-7WS8 IC50 (nM)” value (MCF7:WS8) read?
A: No Inhibition

Q: What does the source list for `Cc1ccc(C(=O)c2sc3cc(O)ccc3c2Oc2ccc(NC(=O)C(=O)O)cc2)c(C)c1` [Compound 19, 2-((4-((2-(2,4-Dimethylbenzoyl)-6-hydroxybenzo[b]thiophen-3-yl)oxy)phenyl)amino)-2-oxoacetic acid]?
A: MCF-7WS8 IC50 (nM) (MCF7:WS8): No Inhibition; IC50 (MCF7:5C): > 10 nM

Q: Which glucuronidation [3] does the source give for `Cc1cc(F)cc(C)c1C(=O)c1sc2cc(O)ccc2c1Oc1ccc(/C=C/C(=O)O)cc1` [Compound 20, (E)-3-(4-((2-(4-Fluoro-2,6-dimethylbenzoyl)-6-hydroxybenzo[b]thiophen-3-yl)oxy)phenyl) acrylic acid] here?
A: observed

Q: What about the IC50 [4] of the same compound?
A: < 1 nM

Q: What about the “times more potent than fulvestrant” value (MCF-7 cells [1]; 0.1 nM E2, 7 day proliferation) of the same compound?
A: ~4 times

Q: And the IC50 (MCF-7 cells [1]; 0.1 nM estradiol (E2), 7 day)?
A: 0.26 nM

Q: What about the IC50 (hERG) of the same compound?
A: > 10000 nM

Q: And the oral bioavailability [5]?
A: good

Q: What about the IC50 (MCF-7 cells [2]; 20 nM insulin, 7 day) of the same compound?
A: 0.028 nM

Q: And the tumor volume (LTED xenograft tumors)?
A: decrease in tumor volume correlated with the dose level; also recorded: effective in decreasing tumor volume at all doses

Q: And the “degradation of the estrogen receptor (ESR1a) with or without MG132” value (estrogen receptor (ER))?
A: dependent on the absence of MG132

Q: What about the “tumor volume, Compound 20 alone” value [6] of the same compound?
A: effective in decreasing tumor volume

Q: And the IC50 [7]?
A: > 10 nM

Q: Which results are given for `CC/C(=C(/c1ccc(/C=C/C(=O)O)cc1)c1ccc2[nH]ncc2c1)c1ccc(F)cc1Cl` [GDC-0810]?
A: IC50 (MCF-7 cells [1]; 0.1 nM estradiol (E2), 7 day): 1.84 nM; IC50 (MCF-7 cells [2]; 20 nM insulin, 7 day): 0.055 nM

Q: Which IC50 (MCF-7 cells [1]; 0.1 nM estradiol (E2), 7 day) does the source give for `CC/C(=C(\c1ccccc1)c1ccc(/C=C/C(=O)O)cc1)c1ccccc1` [GW-5638, Etacstil] here?
A: 946 nM

Q: For `CC/C(=C(\c1ccccc1)c1ccc(/C=C/C(=O)O)cc1)c1ccc(O)cc1` [GW-7604], which IC50 (MCF-7 cells [1]; 0.1 nM estradiol (E2), 7 day) is on record?
A: 1.81 nM

Q: What does the source list for `C[C@]12C[C@H](c3ccc(OCCCCCS(=O)(=O)CCCC(F)(F)C(F)(F)F)cc3)[C@@H]3c4ccc(O)cc4CC[C@H]3[C@@H]1CC[C@@H]2O` [RU 58668]?
A: IC50 (MCF-7 cells [1]; 0.1 nM estradiol (E2), 7 day): 0.052 nM; IC50 (MCF-7 cells [2]; 20 nM insulin, 7 day): 0.013 nM

Q: For `Cc1c(-c2ccc(O)cc2)n(Cc2ccc(OCCN3CCCCCC3)cc2)c2ccc(O)cc12` [bazedoxifene], which IC50 (MCF-7 cells [1]) is on record?
A: 72 nM

Q: What does the source list for `C[C@]12CC[C@@H]3c4ccc(O)cc4C[C@@H](CCCCCCCCC[S+]([O-])CCCC(F)(F)C(F)(F)F)[C@H]3[C@@H]1CC[C@@H]2O` (stereo partly shown) [fulvestrant]?
A: IC50 (MCF-7 cells [1]): 0.86 nM; IC50 (MCF-7 cells [2]): 0.149 nM

Q: With `Oc1ccc2c(c1)CC[C@H](c1ccccc1)[C@@H]2c1ccc(OCCN2CCCC2)cc1` [lasofoxofene, Lasofoxifene] as the compound, how does the IC50 (MCF-7 cells [1]; 0.1 nM estradiol (E2), 7 day) read?
A: 0.17 nM

Q: With `O=C(c1ccc(OCCN2CCCCC2)cc1)c1c(-c2ccc(O)cc2)sc2cc(O)ccc12` [raloxifene] as the compound, how does the IC50 (MCF-7 cells [1]) read?
A: 0.77 nM
